Like-named read-outs stand apart in the source and are kept apart here.
Columns and labels:
human plasma kallikrein = human plasma kallikrein (Homo sapiens, UniProt P03952); assay: Kallikrein inhibition assay utilizing a quenched AMC peptide substrate (FLINT); type: biochemical
Procedure: Biological Example 2: Kallikrein Inhibition Assay Utilizing a Quenched AMC Peptide Substrate
A fluorescence intensity (FLINT) based assay was used to monitor inhibition of human plasma kallikrein. The peptide substrate, Z-Gly-Pro-Arg-AMC (Purchased from Bachem; Catalog #I-1150) was chosen based on its relatively low KM for kallikrein which enables running the assay at lower substrate concentrations to control background fluorescence. The kinetic parameters for this substrate were determined by fitting titration data to the Michaelis-Menten equation yielding a KM=40 μm, kcat=0.76 s^−1, and kcat/KM=18932 M^−1s^−1.
The Kallikrein FLINT assay was used with the following Z-Gly-Pro-Arg-AMC assay buffer: 50 mM Tris, pH 7.5, 100 mM NaCl, 5 mM CaCl2, 0.1 mg/mL BSA, 0.03% CHAPS. Assay buffer was prepared by mixing all ingredients fresh. 2× Z-Gly-Pro-Arg-AMC peptide substrate was prepared by diluting 10 mM stock into 1× assay buffer for a 100 μM working concentration (50 μM final concentration). The 2× kallikrein stock solution was prepared by diluting 14.76 μM stock in 1× assay buffer for a 4 nM working stock solution (2 nM final concentration).
Test compound(s) were run in an 11-point, 3-fold serial dilution with a final top compound concentration of 1 μM. Final DMSO in assay was 2%. Plasma kallikrein was pre-incubated for 30-minute with compound and then 50 μM substrate was added to initiate the reaction. The assay was run with either end point (EP) reads at 30 min or kinetic (KIN) reads at 5 min intervals over 30 minutes. The time course was linear using 2 nM kallikrein greater than 30 minutes. More specifically, the assay was run as follows: • 100 nL of 0.1 mM test compound was dispensed into black 384-well non-binding Greiner BioOne 784900 plate for 1 μM final concentration; • 5 μL of 1× assay buffer was dispensed to columns 24 (low control) and 5 μL 2× human kallikrein enzyme solution was dispensed to columns 1-23 (column 23 high control); • the plate was centrifuged with a “cover” plate at 500 rpm for 1 min • the plate was pre-incubated for 30 minutes at room temperature with plate covered; • 5 μL of 2× Z-Gly-Pro-Arg-AMC peptide substrate was dispensed into the entire plate, columns 1-24; • the plate was centrifuged with a “cover” plate at 500 rpm for 1 min; • the plate was read monitoring fluorescence intensity on the BMG PHERAStar at room temperature, using fluorescence module 340 nm/440 nm.
(§1) Percent inhibition (IC50) curves were generated per compound tested, and data was analyzed using a 4-parameter logistic fit using GeneData Screener. The relative fluorescence unit (RFU) values were normalized to percent inhibition using the following equation:
% inhibition=((HC−LC)−(compound−LC)/(HC−LC))*100 • where LC—low control=mean signal of human kallikrein enzyme or 100% inhibition of human kallikrein enzyme; HC—high control=mean signal of Factor XIa+Z-Gly-Pro-Arg-AMC peptide substrate with DMSO only.
(§2) An 11-point dose response curve for the test compound(s) was generated using GENDATA to determine IC50 value based on the following equation:
Y=Bottom+(Top−Bottom)/(1+10^((log IC50−X)*HillSlope)) • where Y is the % inhibition in the presence of X inhibitor concentration, Top=high control=mean signal of human kallikrein enzyme+Z-Gly-Pro-Arg-AMC peptide substrate with DMSO only; Bottom=low control—mean signal of no human kallikrein enzyme or 100% inhibition of human kallikrein enzyme; HillSlope—Hill coefficient; and IC50=concentration of compound with 50% inhibition in relation to top/high control.
Representative compounds of formula (I) of the present invention were tested according to the procedure described in Biological Example 1 and Biological Example 2 above, with results as listed in Table 3, below. Results listed in the (ER) column were measured using endpoint reads where a single fluorescence reading was measured for each well at a 30 min timepoint. […]

Factor XIa = Factor XIa (Homo sapiens, UniProt P03951); assay: Factor XIa inhibition assay utilizing a fluorophore-quencher pair peptide substrate (FLINT); type: biochemical; conditions: 30 min preincubation
Factor XIa, sequence (P03951 388-625 limits assumed): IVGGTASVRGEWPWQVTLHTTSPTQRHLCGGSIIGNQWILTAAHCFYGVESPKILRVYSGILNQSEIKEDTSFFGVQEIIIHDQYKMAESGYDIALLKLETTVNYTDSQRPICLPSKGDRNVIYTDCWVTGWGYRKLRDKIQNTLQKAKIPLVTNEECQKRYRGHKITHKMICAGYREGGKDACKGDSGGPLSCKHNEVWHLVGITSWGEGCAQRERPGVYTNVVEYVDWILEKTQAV
Factor XIa, sequence (P03951 19-387 partner limits assumed): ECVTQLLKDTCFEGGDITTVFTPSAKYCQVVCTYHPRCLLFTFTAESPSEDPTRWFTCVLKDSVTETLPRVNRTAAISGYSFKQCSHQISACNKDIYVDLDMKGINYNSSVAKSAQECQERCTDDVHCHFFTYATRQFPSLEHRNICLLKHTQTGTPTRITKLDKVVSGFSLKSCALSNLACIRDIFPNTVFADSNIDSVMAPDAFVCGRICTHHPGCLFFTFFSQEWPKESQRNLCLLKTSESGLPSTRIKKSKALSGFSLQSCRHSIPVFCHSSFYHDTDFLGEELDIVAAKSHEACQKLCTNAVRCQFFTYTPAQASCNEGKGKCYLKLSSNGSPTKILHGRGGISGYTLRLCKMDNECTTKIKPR
From the text: Biological Example 1: Factor XIa Inhibition Assay Utilizing a Fluorophore-Quencher Pair Peptide Substrate
A fluorescence intensity (FLINT) based assay was used to monitor inhibition of Factor XIa. The peptide substrate, 5Fam-KLTRAETV-K5Tamra (purchased from New England Peptide) was chosen based on the […]. Conversion of zymogen […]. The custom peptide used in this assay was based on the Arg146 cleavage site of FXI. The peptide substrate was designed with a fluorophore-quencher pair, where the fluorescence is quenched until FXIa cleaves the 8-mer peptide after the Arg residue. The substrate KM was fit to a substrate inhibition model whereby kcat=0.86 s^−1, KM=12.4 μM, Ki=61.6 μM with an enzymatic efficiency, and kcat/KM=69523 M^−1s^−1.
The Factor XIa FLINT assay was used with the following 5Fam-KLTRAETV-K5Tamra assay buffer: 50 mM Tris, pH 7.5, 100 mM NaCl, 5 mM CaCl2, 0.1 mg/mL BSA, 0.03% CHAPS. Assay buffer was prepared by mixing all ingredients fresh. 5Fam-KLTRAETV-K5Tamra peptide substrate was first prepared at 10 mM in 100% DMSO, then diluted to 3 mM in 100% DMSO. Assay buffer was then added directly to the 3 mM stock of substrate to prepare the 30 μM 2× working concentration (15 μM final concentration). The 2× Factor XIa stock solution was prepared by diluting 6.562 μM stock in 1× assay buffer for a […].
Test compound(s) were run in an 11-point, 3-fold serial dilution with a final top compound concentration of 100 nM. Final DMSO in assay was 2%. FXIa was preincubated with compound for 30-minutes and then substrate was added to initiate the reaction. The assay was run with either end point (EP) reads at 30 min or kinetic (KIN) reads at 5 min intervals over 30 minutes. The time course was linear using 100 μM FXIa greater than 30 minutes. More specifically, the assay was run as follows: • 100 nL of 0.01 mM test compound was dispensed into black 384-well non-binding Greiner BioOne 784900 plate for 0.1 μM final concentration; • 5 μL of 1× assay buffer was dispensed to column 24 (low control) and 5 μL 2× Factor XIa solution was dispensed to columns 1-23 (column 23 high control); • the plate was centrifuged with a “cover” plate at 500 rpm for 1 min • the plate was pre-incubated for 30 minutes at room temperature with plate covered; • 5 μL of 2× 5Fam-KLTRAETV-K5Tamra peptide substrate was dispensed into the entire plate, columns 1-24; • the plate was centrifuged with a “cover” plate at 500 rpm for 1 min; • the plate was read monitoring fluorescence intensity on the BMG PHERAStar at room temperature, using fluorescence module 485 nm/520 nm.
as §1
[formula] • where LC—low control=mean signal of no Factor XIa or 100% inhibition of Factor XIa; HC—high control=mean signal of Factor XIa+5Fam-KLTRAETV-K5Tamra peptide substrate with DMSO only.
as §2
[formula] • where Y is the % inhibition in the presence of X inhibitor concentration, Top=high control=mean signal of Factor XIa+5Fam-KLTRAETV-K5Tamra peptide substrate with DMSO only; Bottom=low control—mean signal of no Factor XIa or 100% inhibition of Factor XIa; HillSlope—Hill coefficient; and IC50=concentration of compound with 50% inhibition in relation to top/high control.
Representative compounds of formula (I) of the present invention were tested according to the procedure described in Biological Example 1 and Biological Example 2 above, with results as listed in Table 3, below. […]

[1] = kinetic reads at 5 min intervals over 30 min, 30 min preincubation, read-out: Kallikrein (KIN) IC50
[2] = kinetic reads at 5 min intervals over 30 min, read-out: FXIa (KIN) IC50
[3] = kinetic reads, unit μM, read-out: Kallikrein (KIN) IC50
[4] = end point read at 30 min, 30 min preincubation, read-out: Kallikrein (EP) IC50
[5] = end point read at 30 min, read-out: FXIa (EP) IC50

human plasma kallikrein, sequence (P03952 391-638 limits assumed): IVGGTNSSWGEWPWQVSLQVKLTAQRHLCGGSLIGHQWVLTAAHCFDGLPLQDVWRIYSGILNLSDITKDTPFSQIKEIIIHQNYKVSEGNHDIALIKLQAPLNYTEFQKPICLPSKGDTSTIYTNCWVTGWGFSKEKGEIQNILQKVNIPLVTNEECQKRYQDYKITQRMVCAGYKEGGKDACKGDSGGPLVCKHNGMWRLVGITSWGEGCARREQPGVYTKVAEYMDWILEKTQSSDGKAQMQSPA
human plasma kallikrein, sequence (P03952 20-390 partner limits assumed): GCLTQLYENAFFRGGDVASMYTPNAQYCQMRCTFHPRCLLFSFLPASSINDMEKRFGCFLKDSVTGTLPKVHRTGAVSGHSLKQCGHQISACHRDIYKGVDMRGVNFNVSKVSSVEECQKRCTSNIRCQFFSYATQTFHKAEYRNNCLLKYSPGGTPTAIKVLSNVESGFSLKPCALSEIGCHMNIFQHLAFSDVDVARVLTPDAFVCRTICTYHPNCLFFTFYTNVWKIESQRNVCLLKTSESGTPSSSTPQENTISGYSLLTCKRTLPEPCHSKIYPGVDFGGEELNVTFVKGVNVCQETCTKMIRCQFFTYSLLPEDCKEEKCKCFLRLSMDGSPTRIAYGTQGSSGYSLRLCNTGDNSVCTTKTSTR

Row | SMILES | IC50 (human plasma kallikrein; [1]) [µM] | IC50 (Factor XIa; [2]) [nM] | IC50 (human plasma kallikrein; [3]) [µM] | IC50 (human plasma kallikrein; [4]) [µM] | IC50 (Factor XIa; [5]) [nM]
1 | Cn1nncc1-c1cn([C@@H](CCOC(F)F)c2ccc(-c3c(-n4cc(C(F)(F)F)nn4)ccc(Cl)c3F)c[n+]2[O-])cn1 [M8, (S)-5-(3-Chloro-2-fluoro-6-(4-(trifluoromethyl)-1H-1,2,3-triazol-1-yl)phenyl)-2-(3-(difluoromethoxy)-1-(4-(1-methyl-1H-1,2,3-triazol-5-yl)-1H-imidazol-1-yl)propyl)pyridine 1-oxide] | – | > 200 | > 20 | – | –
2 | Cn1nncc1-c1cn([C@@H](CCOC(F)F)c2ccc(-c3c(-n4cc(Cl)nn4)ccc(Cl)c3F)c[n+]2[O-])cn1 [M11, (S)-5-(3-Chloro-6-(4-chloro-1H-1,2,3-triazol-1-yl)-2-fluorophenyl)-2-(3-(difluoromethoxy)-1-(4-(1-methyl-1H-1,2,3-triazol-5-yl)-1H-imidazol-1-yl)propyl)pyridine 1-oxide] | – | > 200 | > 20 | – | –
3 | [O-][n+]1cc(-c2c(-n3cnnn3)ccc(Cl)c2F)ccc1[C@H](CCOC(F)F)n1cnc(-c2cnnn2C(F)F)c1 [M13, (S)-5-(3-Chloro-2-fluoro-6-(1H-tetrazol-1-yl)phenyl)-2-(3-(difluoromethoxy)-1-(4-(1-(difluoromethyl)-1H-1,2,3-triazol-5-yl)-1H-imidazol-1-yl)propyl)pyridine 1-oxide] | – | > 200 | > 2 | – | –
4 | [O-][n+]1cc(-c2c(-n3cnnn3)ccc(Cl)c2F)ccc1[C@@H](CCOC(F)F)n1cnc(-c2cnnn2C(F)F)c1 [M14, (R)-5-(3-Chloro-2-fluoro-6-(1H-tetrazol-1-yl)phenyl)-2-(3-(difluoromethoxy)-1-(4-(1-(difluoromethyl)-1H-1,2,3-triazol-5-yl)-1H-imidazol-1-yl)propyl)pyridine 1-oxide] | 0.029 | 0.5 | – | – | –
5 | Cn1nncc1-c1cn([C@@H](CC2CC2)c2ccc(-c3c(-n4cnnn4)ccc(Cl)c3F)c[n+]2[O-])nn1 [T5, (S)-5-(3-Chloro-2-fluoro-6-(1H-tetrazol-1-yl)phenyl)-2-(2-cyclopropyl-1-(3′-methyl-1H,3′H-[4,4′-bi(1,2,3-triazol)]-1-yl)ethyl)pyridine 1-oxide] | – | 308 | > 10 | – | –

Second part, the compound after the results:

Row | IC50 (human plasma kallikrein; [1]) [µM] | IC50 (Factor XIa; [2]) [nM] | IC50 (human plasma kallikrein; [3]) [µM] | IC50 (human plasma kallikrein; [4]) [µM] | IC50 (Factor XIa; [5]) [nM] | SMILES
6 | 0.338 | ~33 | – | – | – | [O-][n+]1cc(-c2c(-n3cc(C(F)(F)F)nn3)ccc(Cl)c2F)ccc1[C@@H](CCOC(F)F)n1cnc(-c2ncnn2C(F)F)c1 [M7, (R)-5-(3-Chloro-2-fluoro-6-(4-(trifluoromethyl)-1H-1,2,3-triazol-1-yl)phenyl)-2-(3-(difluoromethoxy)-1-(4-(1-(difluoromethyl)-1H-1,2,4-triazol-5-yl)-1H-imidazol-1-yl)propyl)pyridine 1-oxide]
7 | 0.543 | 4.3 | – | – | – | Cn1ncnc1-c1cn(C(CCOC(F)F)c2ccc(-c3c(-n4cc(C(F)(F)F)nn4)ccc(Cl)c3F)c[n+]2[O-])cn1 (stereo not shown) [M9, 5-(3-Chloro-2-fluoro-6-(4-(trifluoromethyl)-1H-1,2,3-triazol-1-yl)phenyl)-2-(3-(difluoromethoxy)-1-(4-(1-methyl-1H-1,2,4-triazol-5-yl)-1H-imidazol-1-yl)propyl)pyridine 1-oxide]
8 | 0.0489 | 0.5 | – | – | – | Cn1nncc1-c1cn([C@H](CCOC(F)F)c2ccc(-c3c(-n4cc(C(F)(F)F)nn4)ccc(Cl)c3F)c[n+]2[O-])cn1 [M10, (R)-5-(3-Chloro-2-fluoro-6-(4-(trifluoromethyl)-1H-1,2,3-triazol-1-yl)phenyl)-2-(3-(difluoromethoxy)-1-(4-(1-methyl-1H-1,2,3-triazol-5-yl)-1H-imidazol-1-yl)propyl)pyridine 1-oxide]
9 | 0.0159 | 0.3 | – | – | – | Cn1nncc1-c1cn([C@H](CCOC(F)F)c2ccc(-c3c(-n4cc(Cl)nn4)ccc(Cl)c3F)c[n+]2[O-])cn1 [M12, (R)-5-(3-Chloro-6-(4-chloro-1H-1,2,3-triazol-1-yl)-2-fluorophenyl)-2-(3-(difluoromethoxy)-1-(4-(1-methyl-1H-1,2,3-triazol-5-yl)-1H-imidazol-1-yl)propyl)pyridine 1-oxide]
10 | – | – | – | 0.0835 | 1.6 | O=C(O)c1ccc(-c2cn(C(CC3CC3)c3ccc(-c4cc(Cl)ccc4-n4cnnn4)c[n+]3[O-])nn2)cc1 (stereo not shown) [T1, 2-(1-(4-(4-Carboxyphenyl)-1H-1,2,3-triazol-1-yl)-2-cyclopropylethyl)-5-(5-chloro-2-(1H-tetrazol-1-yl)phenyl)pyridine 1-oxide]
11 | – | – | – | 0.367 | 38.1 | O=C(NC1CC1)c1ccc(-c2cn(C(CC3CC3)c3ccc(-c4cc(Cl)ccc4-n4cnnn4)c[n+]3[O-])nn2)cc1 (stereo not shown) [T2, 5-(5-Chloro-2-(1H-tetrazol-1-yl)phenyl)-2-(2-cyclopropyl-1-(4-(4-(cyclopropylcarbamoyl)phenyl)-1H-1,2,3-triazol-1-yl)ethyl)pyridine 1-oxide]

— patent publication US20240228465A1, “SUBSTITUTED PYRIDINE N-OXIDE DERIVATIVES USEFUL AS A FACTOR XIA INHIBITORS” (Janssen Pharmaceutica NV, priority 2021, published 2024)
